Laboratory results reported in US10562864B2, “Chemical modulators of immune checkpoints and therapeutic use” (Duke University, priority 2015, dated 2020).
Entries after “also recorded” stand apart in the source; their conditions may differ.

Legend:
PD1-GFP [1] = biological target: T1, PD1-GFP (Homo sapiens, UniProt Q15116); test: Internalization assay (PD1-GFP), confocal imaging of PD1-GFP stable U2OS cells; type: cell-based; design: Internalized PD1-GFP punctate; 6 hr (10 μM): key to the marks not given beside the values; conditions: 37° C.
T1 construct: expressed in transfected cells; host or cells: U2OS
T1 sequence (Q15116 25-288): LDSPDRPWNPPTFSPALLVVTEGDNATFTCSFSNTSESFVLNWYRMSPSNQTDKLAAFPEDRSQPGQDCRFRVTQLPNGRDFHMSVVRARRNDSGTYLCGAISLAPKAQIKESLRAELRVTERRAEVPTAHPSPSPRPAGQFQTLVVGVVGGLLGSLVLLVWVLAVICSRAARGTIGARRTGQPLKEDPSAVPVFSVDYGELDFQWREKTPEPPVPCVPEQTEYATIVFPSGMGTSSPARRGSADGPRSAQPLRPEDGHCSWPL
Experimental: U2OS cells were transfected with PD1-GFP and stable receptor-expressing cells were selected using 0.5 mg/ml Geneticin in the culture medium. […] The plates were incubated overnight at 37° C. in 5% CO2. The following day, chemical compounds (10 mM in DMSO) were diluted 1:200 in culture medium, 6.25 μL of which was then added to each well of cells to produce a 1:1000 dilution overall and final compound concentration of 10 μM per well. The cells were incubated with compound for 6 h at 37° C. prior to fixation in PBS containing 0.5% paraformaldehyde for 30 min at room temperature. The wells were then washed with PBS three times and stored at 4° C. The cells were imaged using a Zeiss LSM-510 confocal microscope.

PD-1 = test: Western blot analysis of PD-1 protein level in 4T1 cells stably expressing PD-1; type: cell-based, murine; design: key to Decrease in PD1 protein level by western blot at 24 h at 5 μM: † 3+ Scale with + least and +++ most; † 3+ Scale with + least and +++ most; † 3+ Scale with + least and +++ most; key to Decrease in PD1 protein level by western blot at 4 days at 3 μM: ‡ 3+ Scale with + least and +++ most; ‡ 3+ Scale with + least and +++ most; ‡ 3+ Scale with + least and +++ most; conditions: for Decrease in PD1 protein level by western blot at 4 days at 3 μM / Decrease in PD1 protein level by western blot at 24 h at 5 μM / PD-1 protein levels by western blot after 4 days: 4T1-PD1 cells; for PD-1 protein levels by western blot at 24 hours: 4T1 cells stably expressing PD-1, FIG. 9, 10, 12; for PD-1 protein levels by western blot after 4 days: FIG. 13
Experimental: Murine breast cancer cells were grown in DMEM medium supplemented with 10% FBS and penicillin and streptomycin antibiotics at 37° C. in 5% CO2.
4T1 Murine breast cancer cells stably expressing PD1 were seeded in 12-well plates (30 k cells/well) and incubated overnight. […] Cells were lysed with SDS sample buffer and lysates were subjected to western blot analysis
4T1-PD1 cells were seeded in 12-well plates (100 k cells/well) overnight. On the next day, compounds were added and the cells incubated for 4 days. The cells were then lysed in SDS sample buffer and lysates were subjected to western blot analysis

phospho-Erk1/2 = test: Western blot analysis of phospho-Erk1/2 levels in 4T1-PD1 cells; type: cell-based, murine; conditions: 24 hours, FIG. 11, 12
Experimental: 4T1-PD1 cells (30K cells/per well) were seeded in 12-well plates overnight. On the following day, the compounds were added and the cells were incubated for 24 hours. The cells were then lysed in SDS sample buffer and analyzed by western blots.
4T1-PD1 cells (30K cells/per well) were seeded in 12-well plates overnight. On the following day, the compounds were added and the cells were incubated for 24 hours. The cells were then lysed in SDS sample buffer and analyzed by western blot.
4T1 Murine breast cancer cells stably expressing PD1 were seeded in 12-well plates (30 k cells/well) and incubated overnight. On the next day, compounds were added to produce the final concentration desired and the cells were incubated for […]. Cells were lysed with SDS sample buffer and lysates were subjected to western blot analysis

PD1-GFP [2] = biological target: T1, PD1-GFP; test: Internalization assay (PD1-GFP), confocal imaging of PD1-GFP stable U2OS cells; type: cell-based; conditions: 0.25 μM to 10 μM, 6 h, see FIG. 6/7
CTLA4-GFP = biological target: T2, CTLA4-GFP (Homo sapiens, UniProt P16410); test: CTLA4-GFP internalization, confocal imaging of CTLA4-GFP stable U2OS cells; type: cell-based; design: key to Internalized CTLA4-GFP punctate; 6 hr (10 μM): **4+ Scale with + least and ++++ most; **4+ Scale with + least and ++++ most; **4+ Scale with + least and ++++ most; **4+ Scale with + least and ++++ most
T2 construct: expressed in transfected cells; host or cells: U2OS
T2 sequence (P16410 36-223): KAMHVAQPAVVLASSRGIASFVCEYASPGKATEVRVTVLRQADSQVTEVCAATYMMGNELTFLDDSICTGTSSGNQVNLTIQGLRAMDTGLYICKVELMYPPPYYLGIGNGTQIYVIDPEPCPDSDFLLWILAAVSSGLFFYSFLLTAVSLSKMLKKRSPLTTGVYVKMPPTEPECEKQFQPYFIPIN

PDL1-GFP = biological target: T3, PDL1-GFP (Homo sapiens, UniProt Q9NZQ7); test: Confocal imaging of PDL1-GFP stable U2OS cells; type: cell-based; conditions: 10 μM, 6 h, 37° C., FIG. 2
T3 construct: expressed in transfected cells; host or cells: U2OS
T3 sequence (Q9NZQ7 19-290): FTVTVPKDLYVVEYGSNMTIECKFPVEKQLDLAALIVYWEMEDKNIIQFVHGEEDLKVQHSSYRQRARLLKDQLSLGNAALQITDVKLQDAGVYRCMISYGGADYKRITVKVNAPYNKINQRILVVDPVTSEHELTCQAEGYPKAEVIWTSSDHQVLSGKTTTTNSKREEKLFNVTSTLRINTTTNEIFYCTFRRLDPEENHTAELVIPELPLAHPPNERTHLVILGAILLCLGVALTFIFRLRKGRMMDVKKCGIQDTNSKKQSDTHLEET

Row | SMILES | Internalized PD1-GFP punctate; 6 hr (10 μM) (PD1-GFP [1]) | Decrease in PD1 protein level by western blot at 24 h at 5 μM (PD-1) | PD-1 protein levels by western blot at 24 hours (PD-1) | also measured
1 | O=[N+]([O-])c1ccc(-c2nnc(-c3cc(Cl)ccc3O)[nH]2)cc1 [Compound 1, 4-Chloro-2-(5-(4-nitrophenyl)-4H-1,2,4-triazol-3-yl)phenol] | ++++ |  |  | 
2 | O=[N+]([O-])c1ccc2[nH]c(-c3cc(Cl)ccc3O)nc2c1 [Compound 2, 4-Chloro-2-(5-nitro-1H-benzo[d]imidazol-2-yl)phenol] | ++++ | ++ | lower PD-1 and phopho-Erk1/2 protein levels | Decrease in PD1 protein level by western blot at 4 days at 3 μM (PD-1): +++; PD-1 protein levels by western blot after 4 days (PD-1): lower PD-1 protein levels; phospho-Erk1/2 levels by western blot (phospho-Erk1/2): lower PD-1 and phopho-Erk1/2 protein levels
3 | O=[N+]([O-])c1ccc2[nH]c(-c3cc(F)ccc3O)nc2c1 [Compound 3, 4-fluoro-2-(5-nitro-1H-benzo[d]imidazol-2-yl)phenol] |  | ++ | lower PD-1 and phopho-Erk1/2 protein levels | Decrease in PD1 protein level by western blot at 4 days at 3 μM (PD-1): +++; PD-1 protein levels by western blot after 4 days (PD-1): lower PD-1 protein levels; phospho-Erk1/2 levels by western blot (phospho-Erk1/2): lower PD-1 and phopho-Erk1/2 protein levels
4 | O=S(=O)(Nc1ccc(C(F)(F)F)cc1Cl)c1cc(Cl)ccc1O [Compound 4, 5-Chloro-N-(2-chloro-4-(trifluoromethyl)phenyl)-2-hydroxybenzenesulfonamide] | ++ |  |  | 
5 | Cc1ccc(S(=O)(=O)Nc2ccc(Br)cc2C(=O)Nc2ccc(C(F)(F)F)cc2)cc1 [Compound 8, 5-Bromo-2-((4-methylphenyl)sulfonamido)-N-(4-(trifluoromethyl)phenyl)benzamide] | ++++ |  |  | 
6 | O=C(Nc1ccc(C(F)(F)F)cc1)c1cc(Cl)cc2[nH]c(C(F)(F)F)nc12 [Compound 9, 6-Chloro-2-(trifluoromethyl)-N-(4-(trifluoromethyl)phenyl)-1H-benzo[d]imidazole-4-carboxamide] | ++++ |  |  | 
7 | CC[C@@H](C(=O)[C@@H](C)[C@@H](O)[C@H](C)CCc1ccc(C)c(O)c1C(=O)O)[C@H]1O[C@](CC)([C@H]2CC[C@](O)(CC)[C@H](C)O2)C[C@@H]1C [Compound 14, lasalocid] | ++++ | ++ | lower PD-1 protein levels | phospho-Erk1/2 levels by western blot (phospho-Erk1/2): lower phospho-Erk1/2 levels
8 | CC(NCCC(c1ccccc1)c1ccccc1)c1ccccc1 (centres unmarked) [Compound 15] | ++ |  |  | 
9 | COc1ccc2cc1Oc1ccc(cc1)C[C@H]1c3cc(c(OC)cc3CCN1C)Oc1c(OC)c(OC)cc3c1[C@H](C2)N(C)CC3 [Compound 17] | +++ |  |  | Decrease in PD1 protein level by western blot at 4 days at 3 μM (PD-1): ++
10 | CCCCc1oc2ccccc2c1C(=O)c1cc(I)c(OCCN(CC)CC)c(I)c1 [amiodarone] |  |  |  | PD-1 protein levels by western blot after 4 days (PD-1): lower PD-1 protein levels

The next lines start with results.

Row | Internalized PD1-GFP punctate; 6 hr (10 μM) (PD1-GFP [1]) | SMILES | Decrease in PD1 protein level by western blot at 24 h at 5 μM (PD-1) | PD-1 protein levels by western blot at 24 hours (PD-1) | also measured
11 | ++++ | O=C(Nc1ccc(C(F)(F)F)cc1Cl)c1cc(Cl)ccc1O [Compound 5, 5-chloro-N-(2-chloro-4-(trifluoromethyl)phenyl)-2-hydroxybenzamide] |  |  | 
12 | ++++ | O=C(Nc1cc(Cl)cc(Cl)c1)c1cc(Cl)ccc1O [Compound 6, 5-chloro-N-(3,5-dichlorophenyl)-2-hydroxybenzamide] |  |  | 
13 | ++++ | CCCCCCCC(=O)Oc1ccc(Cl)cc1C(=O)Nc1ccc([N+](=O)[O-])cc1Cl [Compound 7, 4-Chloro-2-((2-chloro-4-nitrophenyl)carbamoyl)phenyl octanoate] | ++ | lower PD-1 protein levels | EC50 (PD1-GFP [2]): 3 µM
14 | ++++ | O=C(Nc1ccc([N+](=O)[O-])cc1Cl)c1cc(Cl)ccc1O [Compound 10, niclosamide] | +++ | decreases PD-1 protein levels; also recorded: lower PD-1 protein levels | PD1-GFP internalization in confocal images (PD1-GFP [1]; 10 μM, 6 h, FIG. 1): internalized PD1-GFP vesicles; CTLA4-GFP vesicles in confocal images (CTLA4-GFP; 10 μM, 6 h, 37° C., FIG. 3): aggregated CTLA4-GFP vesicles; Internalized CTLA4-GFP punctate; 6 hr (10 μM) (CTLA4-GFP; 6 hr): +++; PD-1 protein levels by western blot at 6 hours (PD-1; 6 hrs, 4T1 cells stably expressing PD-1, FIG. 8): decreases PD-1 protein levels; phospho-Erk1/2 levels by western blot (phospho-Erk1/2): lower phospho-Erk1/2 levels; PDL1-GFP vesicles in confocal images (PDL1-GFP): aggregated PDL1-GFP vesicles; EC50 (PD1-GFP [2]): 3 µM
15 | ++ | O=C(Nc1ncc([N+](=O)[O-])s1)c1ccccc1O [Compound 11] |  |  | 
16 | ++ | CC(=O)Oc1ccccc1C(=O)Nc1ncc([N+](=O)[O-])s1 [Compound 12, nitazoxanide] | + | lower PD-1 and phopho-Erk1/2 protein levels | phospho-Erk1/2 levels by western blot (phospho-Erk1/2): lower PD-1 and phopho-Erk1/2 protein levels
17 | +++ | CCCCc1oc2ccccc2c1C(=O)c1cc(I)c(OCCN(CC)CC)c(I)c1 [Compound 13] |  |  | Decrease in PD1 protein level by western blot at 4 days at 3 μM (PD-1): ++
18 | +++ | CCN(CC)CCCC(C)Nc1c2ccc(Cl)cc2nc2ccc(OC)cc12 (centres unmarked) [Compound 16] |  |  | 
19 | ++++ | Cc1cc(/C=C/c2ccc3cc(N(C)C)ccc3[n+]2C)c(C)n1-c1ccccc1 [Compound 18] |  |  | Decrease in PD1 protein level by western blot at 4 days at 3 μM (PD-1): +++
20 | +++ | CCN(CC)CCCC(C)Nc1ccnc2cc(Cl)ccc12 (centres unmarked) [Compound 19] |  |  | 
